Patent US20070122395A1, “Genetic and pharmacological regulation of antidepressant-sensitive biogenic amine transporters through PKG/p38 map kinase” (Vanderbilt University, priority 2005, published 2007)

Assays:
[1] = target: T1, native SERT in RN46A cells (Rattus norvegicus, UniProt P31652); experiment: [3H]5-HT transport assay in RN46A cells; type: cell-based; details: RN46A, 10 min treatment
T1 construct: derived from rat E13 raphenucleus, that expresses native SERT; endogenous in cells; host or cells: RN46A cells
T1 sequence (P31652 whole entry): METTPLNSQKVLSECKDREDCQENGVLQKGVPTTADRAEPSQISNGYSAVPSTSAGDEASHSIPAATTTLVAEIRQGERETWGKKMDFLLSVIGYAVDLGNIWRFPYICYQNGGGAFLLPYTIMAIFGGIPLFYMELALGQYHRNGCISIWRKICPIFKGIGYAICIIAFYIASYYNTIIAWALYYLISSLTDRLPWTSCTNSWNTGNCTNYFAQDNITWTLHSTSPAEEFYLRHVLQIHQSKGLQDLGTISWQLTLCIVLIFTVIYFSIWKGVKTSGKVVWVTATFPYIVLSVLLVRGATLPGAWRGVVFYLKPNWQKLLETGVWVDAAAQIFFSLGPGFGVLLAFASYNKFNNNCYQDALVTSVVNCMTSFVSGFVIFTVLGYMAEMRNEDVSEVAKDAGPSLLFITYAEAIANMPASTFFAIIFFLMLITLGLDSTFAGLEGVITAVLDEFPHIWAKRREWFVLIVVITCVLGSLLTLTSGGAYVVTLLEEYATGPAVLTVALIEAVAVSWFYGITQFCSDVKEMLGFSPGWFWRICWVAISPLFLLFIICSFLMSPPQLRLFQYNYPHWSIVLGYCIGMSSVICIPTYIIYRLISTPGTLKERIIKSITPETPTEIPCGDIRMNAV

hSERT [2] = target: T2, hSERT (Homo sapiens, UniProt P31645); experiment: [125I]RTI-55 binding to intact transfected HeLa cells (surface and total SERT); type: cell-based
T2 construct: The full-length cDNA encoding hSERT in the mammalian expression vector pcDNA3.1; expressed in transfected cells; host or cells: HeLa
T2 sequence (P31645 whole entry): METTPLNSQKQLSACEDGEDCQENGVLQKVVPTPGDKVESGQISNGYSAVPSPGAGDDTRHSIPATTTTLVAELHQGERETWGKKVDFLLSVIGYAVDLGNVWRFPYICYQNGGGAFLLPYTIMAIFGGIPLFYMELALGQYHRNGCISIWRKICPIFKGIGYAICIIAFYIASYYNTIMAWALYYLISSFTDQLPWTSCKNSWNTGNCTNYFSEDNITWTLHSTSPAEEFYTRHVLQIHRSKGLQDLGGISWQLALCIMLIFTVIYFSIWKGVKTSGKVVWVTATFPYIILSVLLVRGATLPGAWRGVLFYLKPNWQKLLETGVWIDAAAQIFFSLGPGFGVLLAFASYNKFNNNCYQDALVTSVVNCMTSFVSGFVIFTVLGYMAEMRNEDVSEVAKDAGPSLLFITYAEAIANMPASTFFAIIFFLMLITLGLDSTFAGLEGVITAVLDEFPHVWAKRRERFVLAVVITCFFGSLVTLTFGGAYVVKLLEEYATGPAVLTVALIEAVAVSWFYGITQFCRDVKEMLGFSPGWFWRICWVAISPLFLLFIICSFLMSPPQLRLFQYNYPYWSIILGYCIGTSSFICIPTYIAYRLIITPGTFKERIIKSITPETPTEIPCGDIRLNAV

hSERT [3] = target: T2, hSERT; experiment: [3H]5-HT transport (SERT uptake) assay in transfected HeLa cells; type: cell-based
Procedure: (§1) Transfection and Transport Studies. HeLa cells, maintained at 37° C. in a 5% CO2 humidified incubator, were grown in complete medium (Dulbecco's Modified Eagle's Medium (DMEM, Invitrogen), 10% fetal bovine serum, 2 mM L-glutamine, 100 units/ml penicillin, and 100 μg/ml streptomycin).
(§2) Transport, Binding, Biotinylation and Phosphorylation Studies. […] To establish levels and biosynthetic progression of hSERT protein produced from mutant cDNAs, HeLa cells were plated in 6-well dishes at 500,000 cells per well and transfected 12 h later. Twenty four hours after transfection, whole cell detergent extracts were blotted for hSERT (mAb Technologies, Inc., 1:1000) using enhanced chemiluminescence (ECL, Amersham) detection.

[4] = test system: Gly56Ala heterozygous lymphocytes; experiment: 5-HT uptake in genotyped lymphocyte lines; type: cell-based, human; details: Gly56Ala heterozygous cells
Source text: (§3) Genotyping and Lymphocyte Studies. Lymphocyte lines were derived from autistic pedigrees recruited by Susan E. Folstein (Johns Hopkins Univ), from the Autism Genetics Resource Exchange (AGRE) collection (www.agre.org/), and from the NIMH Human Genetics Initiative Repository (www.nimhgenetics.org/) at Rutgers University. DNA from lymphoblastoid cell lines was genotyped via TaqMan-based allelic discrimination, using an Applied Biosystems (Foster City, Calif.) Assay-by-Design and independently confirmed by PCR and direct sequence analysis. […] Lymphocyte were pelleted at 1500 rpm, 5 min and washed with KRH assay buffer. A total of 1×10^6 cells in triplicate were pre-warmed (37° C.) in a shaking water bath (10 min) in 12×75 polypropylene tubes in KRH buffer containing 100 μM pargyline and 100 μM ascorbic acid+/−modifiers.

[5] = test system: Ala56 homozygous lymphocyte lines; experiment: 5-HT uptake in genotyped lymphocyte lines; type: cell-based, human
Source text: as §3

[6] = test system: lymphocytes homozygous for the Gly variant (hSERT Gly56); experiment: 5-HT uptake in genotyped lymphocyte lines; type: cell-based, human; details: Gly56 homozygous lymphocytes
Source text: as §3

[7] = test system: hSERT variants Leu255Met, Ser293Phe, Pro339Leu, Leu362Met, Ile425Val; experiment: 5-HT transport regulation in transfected HeLa cells, responsive variants; type: cell-based, human
Procedure: as §1, §2

[8] = test system: five hSERT variants that failed to elicit uptake increases; experiment: [125I]RTI-55 surface binding to intact transfected HeLa cells, non-responsive variants; type: cell-based, human; details: five non-responsive variants
[9] = test system: hSERT variants Thr4Ala, Gly56Ala, Glu215Lys, Lys605Asn, Pro621Ser; experiment: 5-HT transport regulation in transfected HeLa cells, non-responsive variants; type: cell-based, human
Procedure: as §1, §2

[10] = test system: hSERT variants that responded with uptake increases; experiment: [125I]RTI-55 surface binding to intact transfected HeLa cells, responsive variants; type: cell-based, human
hSERT Gly56Ala = experiment: in situ SERT phosphorylation in [32P]-prelabeled transfected HeLa cells; type: cell-based, human
hSERT [11] = experiment: as above; type: cell-based, human; details: 8BrcGMP 100 μM, 60 min
mSERT = experiment: monoamine uptake assay in transfected CHO cells; type: cell-based, mouse; details: 10-min anisomycin
Procedure: (§4) Cell Culture and Transfection. […] Cells were cultured for 24 h after transfection. The transfection mixture was removed just prior to assay.

p38 MAPK = type: cell-based, rat
Procedure: Assays of p38 MAPK Activation. […] Medium was removed by aspiration, and cells were washed once with KRH buffer and then incubated in triplicate at 37° C. in KRH buffer with or without p38 MAPK activators for 5-10 min. Assay buffer was removed, and cells were immediately fixed with fresh 4% formaldehyde (Sigma) in PBS for 20 min at room temperature and washed four times with 1×PBS containing 0.1% Triton X-100 (Sigma) (5 min per wash) prior to 1 h of blocking with Odyssey blocking buffer (Li-Cor Biosciences, Lincoln, Nebr.). RBL-2H3 cells were subsequently probed with dual phosphorylated (Thr(P) and Tyr(P)) p38 MAPK polyclonal antibody (Cell Signaling; 1:400) in Odyssey blocking buffer with gentle mixing for 2 h at room temperature. Cells were then washed four times with 1×PBS containing 0.1% Tween 20 (Sigma) for 5 min. Bound antibody was detected with fluorescence-labeled secondary antibody-Alexa Fluor® 680 (avoiding exposure to light; 1:200 in Odyssey Blocking Buffer, Molecular Probes, Inc., Eugene, Oreg.) for 1 h. After four washes with 1×PBS, 0.1% Tween 20, the plate was scanned, and the captured image of the signal was processed and quantified with the Odyssey™ Infrared Imaging System (Li-Cor Biosciences). For UV radiation to activate p38 MAPK, plates seeded with cells were placed in a UV source (UV Stratalinker 1800, Stratagene, La Jolla, Calif.) that was preset to deliver 4×10^4 μJ/cm^2 at room temperature.

hDAT = experiment: monoamine uptake assay in transfected CHO cells; type: cell-based, human; details: 10-min anisomycin
Procedure: as §4

human NET = experiment: monoamine uptake assay in transfected CHO cells; type: cell-based; details: CHO cells, 10-min anisomycin
Procedure: Cell Culture and Transfection. […] CHO cells (ATCC, Manassas, Va.) were maintained at 37° C. in Dulbecco's MEM containing 10% fetal bovine serum, 1% L-Glu, 100 IU/ml penicillin, and 100 μg/ml streptomycin. For comparison of the response of monoamine transporters to p38 MAPK activation, CHO cells were transfected with cDNAs for hSERT, hDAT, or hNET (100 ng/well for a 24-well plate). Transfections of CHO cells were performed using TransIT-LT1 Transfection Reagent (Mirus, Madison, Wis.) according to the manufacturer's protocol (0.3 μl/well). hSERT, hDAT, or hNET cDNAs were preincubated with the reagent at ambient temperature for 30 min before being added to plated CHO cells. Cells were cultured for 24 h after transfection. The transfection mixture was removed just prior to assay.
CHO cells were plated at 20,000 cells/well 16-24 h before transfection, and the uptake assay was performed 24 h following the transfection. […] Medium was removed by aspiration, and cells were washed once with Krebs-Ringer HEPES (KRH) buffer containing 130 mM NaCl, 1.3 mM KCl, 2.2 mM CaCl2, 1.2 mM MgSO4, 1.2 mM KH2PO4, 1.8 g/liter glucose, 10 mM HEPES, pH 7.4. […] Cells were solubilized with 0.5 ml of Microscint 20 (PerkinElmer Life Sciences), and tritium-labeled monoamine accumulation was quantitated using a TopCount plate scintillation counter (PerkinElmer Life Sciences).

Structure (SMILES) | stimulation of 5-HT transport [1] | [125I]RTI-55 surface binding after 8BrcGMP (hSERT [2]; 100 μM 8BrcGMP, 5-HT 100 μM as displacer) | total [125I]RTI-55 binding (hSERT [2]; paroxetine as displacer, data not shown) | stimulation of 5-HT transport activity (peak increase) (hSERT [3]) | sensitivity of 5-HT uptake to activator [4] | sensitivity of 5-HT uptake to activator [5] | stimulation of 5-HT transport [6] | 8BrcGMP effect on SERT activity [7] | [125I]RTI-55 surface binding after 8BrcGMP [8] | 8BrcGMP effect on SERT activity [9] | [125I]RTI-55 surface binding after 8BrcGMP [10] | SERT phosphorylation response to 8BrcGMP (hSERT Gly56Ala) | elevation of basal SERT phosphorylation (hSERT [11]) [%] | anisomycin-modulated 5-HT uptake (mSERT) | increase in phosphorylated p38 MAPK (p38 MAPK; 0.5 and 1.0 μm, 5 min) | level of p38 MAPK phosphorylation stimulation (p38 MAPK; 5 min treatment) | total p38 MAPK levels (p38 MAPK; data not shown) | anisomycin-modulated DA uptake (hDAT) | anisomycin-modulated NE uptake (NET activity) (human NET)
Nc1nc2c(nc(Br)n2[C@@H]2O[C@@H]3COP(=O)(O)O[C@H]3[C@H]2O)c(=O)[nH]1 [8BrcGMP, 8-bromo-cGMP] | increase in 5-HT transport | Parallel changes in [^125I]RTI-55 surface binding | no effects on total binding | 50-70% | intermediate sensitivity | lacked sensitivity | robust 8BrcGMP stimulation of 5-HT transport | dose-dependent, H8-sensitive stimulation of SERT activity comparable to hSERT | reduction in [^125I]RTI-55 surface binding | completely insensitive | elevated [^125I]RTI-55 surface binding | could not be further phosphorylated | ~80 |  |  |  |  |  | 
COc1ccc(C[C@H]2NC[C@H](O)[C@H]2OC(C)=O)cc1 [anisomycin] |  |  |  |  |  |  |  |  |  |  |  |  |  | SB203580-sensitive elevation in 5-HT uptake | 2-3 fold | comparable to stimulation achieved with 8-bromo-cGMP | No changes | small, but significant SB203580-sensitive inhibition of DA uptake | stimulated to a comparable degree as hSERT
